Source: US5001240A, “Process for preparing optically active hydantoins” (Sanwa Kagaku Kenkyyusho Co., Ltd., priority 1986, dated 1991)
Where two headings read alike, the source gives them in different places.

Key:
[1] = system: polyol increase in the sciatic nerve of galactosemic rats; assay: Reduction or inhibition of polyol (galactitol) increase in the sciatic nerve of galactosemic rats; type: in vivo, rat; settings: for ED50: once a day for eight days, 30% galactose diet, sciatic nerve galactitol
Method: The compounds according to the invention were tested for their ability to reduce or inhibit polyol increase in the sciatic nerve of galactosemic rats. Rats were fed 30% galactose diet and were administered the compounds at the various doses of 0.4-50 mg/kg once a day for eight days. One day after the final administration (on 9th day), sciatic nerves were removed for galactitol determination. […] The selected control compounds are typical one described in the aforesaid Japanese Unexamined Patent Application Gazette.

aldose reductase = molecular target: T1, aldose reductase (Rattus norvegicus, UniProt P07943); assay: Inhibition of aldose reductase enzyme activity (Kador and Sharpless method, water soluble extracts of rat lenses); type: biochemical; settings: for IC50: rat lens extract; for inhibition at 0.02 µM: 2.0 × 10^-8 M
T1 construct: water soluble extracts of rat lenses; from tissue; host or cells: rat lens (water-soluble extract)

[2] = Rattus norvegicus, 192 h, Table 3, read-out: ED50
[3] = Rattus norvegicus, 192 h, Table 4, read-out: ED50
[4] = Table 1, 3.3 × 10^-8 M, read-out: Inhibition (%)
[5] = Table 1, 10^-7 M, read-out: Inhibition (%)
[6] = Table 2, 3.3 × 10^-8 M, read-out: Inhibition (%)
[7] = Table 2, 10^-7 M, read-out: Inhibition (%)
[8] = Table 2, 10^-8 M, read-out: Inhibition (%)
[9] = Table 1, 10^-5 M, read-out: Inhibition (%)

In the case of NC(=O)C1CC2(NC(=O)NC2=O)c2cc(F)ccc2O1 (racemic) [A, dl-6-Fluoro-2,3-dihydro-2',5'-dioxo-spiro[4H-1-benzopyran-4,4'-imidazolidine]-2-carboxamide], the ED50 [1, 2] is reported as 3.3 mg/kg, the inhibition at 0.01 µM (aldose reductase) is reported as 21% and the inhibition at 0.033 µM (aldose reductase) is reported as 51%. For the same molecule, the inhibition at 0.1 µM (aldose reductase) was 80%.
With O=C1NC(=O)C2(CC(CCl)Oc3ccc(F)cc32)N1 (racemic) [D, dl-2-Chloromethyl-6-fluoro-2,3-dihydro-spiro[4H-1-benzopyran-4,4'-imidazolidine]-2',5'-dione] the ED50 [1, 3] was 1.3 mg/kg, the inhibition at 0.33 µM (aldose reductase; Table 1, 3.3 × 10^-7 M) was 78% and the inhibition at 0.033 µM (aldose reductase; [4]) was 28%. It also gave an inhibition at 0.1 µM (aldose reductase; [5]) of 53% and an IC50 (aldose reductase; Table 1) of 90 nM.
In the case of O=C1NC(=O)C2(CC(C(=O)O)Oc3ccc(F)cc32)N1 (racemic) [Example 1, dl-6-fluoro-2,3-dihydro-2',5'-dioxo-spiro[4H-1-benzopyran-4,4'-imidazolidine]-2-carboxylic acid], the “potency of the major diastereomer vs minor diastereomer in inhibition of polyol increase” value ([1]; sciatic nerve of galactosemic rats) is reported as “higher than that of the minor diastereomer”.
With O=C1NC(=O)C2(CC(CBr)Oc3ccc(F)cc32)N1 (racemic) [G, dl-2-Bromomethyl-6-fluoro-2,3-dihydro-spiro[4H-1-benzopyran-4,4'-imidazolidine]-2',5'-dione] the ED50 [1, 3] was 7.2 mg/kg, the inhibition at 0.33 µM (aldose reductase; Table 1, 3.3 × 10^-7 M) was 70% and the inhibition at 0.033 µM (aldose reductase; [4]) was 22%. It also gave an inhibition at 0.1 µM (aldose reductase; [5]) of 42% and an IC50 (aldose reductase; Table 1) of 130 nM.
In the case of NC(=O)C1CC2(NC(=O)NC2=O)c2cc(F)cc([N+](=O)[O-])c2O1 (racemic) [L, dl-6-Fluoro-2,3-dihydro-8-nitro-2',5'-dioxo-spiro[4H-1-benzopyran-4,4'-imidazolidine]-2-carboxamide], the inhibition at 0.033 µM (aldose reductase; [6]) is reported as 50%, the inhibition at 0.1 µM (aldose reductase; [7]) is reported as 88% and the inhibition at 0.01 µM (aldose reductase; [8]) is reported as 15%. For the same molecule, the IC50 (aldose reductase; Table 2) was 31 nM.
In the case of NC(=O)C1CC2(NC(=O)NC2=O)c2cc(F)cc(N)c2O1 (racemic) [M, dl-8-Amino-6-fluoro-2,3-dihydro-2',5'-dioxo-spiro[4H-1-benzopyran-4,4'-imidazolidine]-2-carboxamide], the inhibition at 0.033 µM (aldose reductase; [6]) is reported as 40%, the inhibition at 0.1 µM (aldose reductase; [7]) is reported as 74% and the inhibition at 0.01 µM (aldose reductase; [8]) is reported as 13%. It also gave an IC50 (aldose reductase; Table 2) of 44 nM.
For O=C1NC(=O)C2(CC(CCl)Oc3c([N+](=O)[O-])cc(F)cc32)N1 (racemic) [N, dl-2-Chloromethyl-6-fluoro-2,3-dihydro-8-nitro-spiro[4H-1-benzopyran-4,4'-imidazolidine]-2',5'-dione], the inhibition at 0.33 µM (aldose reductase; Table 2, 3.3 × 10^-7 M) was 81%, the inhibition at 0.033 µM (aldose reductase; [6]) was 30% and the inhibition at 0.1 µM (aldose reductase; [7]) was 59%. The IC50 (aldose reductase; Table 2) was 76 nM.
Work on Nc1cc(F)cc2c1OC(CCl)CC21NC(=O)NC1=O (racemic) [O, dl-8-Amino-2-chloromethyl-6-fluoro-2,3-dihydro-spiro[4H-1-benzopyran-4,4'-imidazolidine]-2',5'-dione] yielded an inhibition at 0.33 µM (aldose reductase; Table 2, 3.3 × 10^-7 M) of 68%, an inhibition at 1 µM (aldose reductase; Table 2, 10^-6 M) of 85% and an inhibition at 0.1 µM (aldose reductase; [7]) of 38%. For the same molecule, the IC50 (aldose reductase; Table 2) was 170 nM.
Work on NC(=O)[C@H]1CC2(NC(=O)NC2=O)c2cc(F)ccc2O1 (stereo partly drawn) [B, d-6-Fluoro-2,3-dihydro-2',5'-dioxo-spiro[4H-1-benzopyran-4,4'-imidazolidine]-2-carboxamide] yielded an ED50 [1, 2] of 1.3 mg/kg, an inhibition at 0.01 µM (aldose reductase) of 39% and an inhibition at 0.033 µM (aldose reductase) of 80%. The inhibition at 0.1 µM (aldose reductase) was 93%.
NC(=O)C1CC2(NC(=O)NC2=O)c2cc(F)ccc2O1 (stereo not drawn) [C, 1-6-Fluoro-2,3-dihydro-2',5'-dioxo-spiro[4H-1-benzopyran-4,4'-imidazolidine]-2-carboxamide] gave an inhibition at 10 µM (aldose reductase) of 27%.
For O=C1NC(=O)C2(CC(CCl)Oc3ccc(F)cc32)N1 (stereo not drawn) [Compound E, d-2-Chloromethyl-6-fluoro-2,3-dihydro-spiro[4H-1-benzopyran-4,4'-imidazolidine]-2',5'-dione], the ED50 [1, 3] was 0.6 mg/kg, the inhibition at 0.033 µM (aldose reductase; [4]) was 38% and the inhibition at 0.1 µM (aldose reductase; [5]) was 66%. The inhibition at 0.01 µM (aldose reductase; Table 1, 10^-8 M, read-out: Inhibition (%)) was 21% and the IC50 (aldose reductase; Table 1) was 47 nM.
Work on O=C1NC(=O)C2(CC(CCl)Oc3ccc(F)cc32)N1 (stereo not drawn) [F, 1-2-Chloromethyl-6-fluoro-2,3-dihydro-spiro[4H-1-benzopyran-4,4'-imidazolidine]-2',5'-dione] yielded an inhibition at 3.3 µM (aldose reductase; Table 1, 3.3 × 10^-6) of 52%, an inhibition at 10 µM (aldose reductase; [9]) of 74% and an inhibition at 1 µM (aldose reductase; Table 1, 10^-6 M) of 28%. It also gave an IC50 (aldose reductase; Table 1) of 2900 nM.
O=C1NC(=O)C2(CC(CBr)Oc3ccc(F)cc32)N1 (stereo not drawn) [H, d-2-Bromomethyl-6-fluoro-2,3-dihydro-spiro[4H-1-benzopyran-4,4'-imidazolidine]-2',5'-dione] gave an ED50 [1, 3] of 2.2 mg/kg, an inhibition at 0.33 µM (aldose reductase; Table 1, 3.3 × 10^-7 M) of 82% and an inhibition at 0.033 µM (aldose reductase; [4]) of 35%. The inhibition at 0.1 µM (aldose reductase; [5]) was 59% and the IC50 (aldose reductase; Table 1) was 68 nM.
O=C1NC(=O)C2(CC(CBr)Oc3ccc(F)cc32)N1 (stereo not drawn) [I, 1-2-Bromomethyl-6-fluoro-2,3-dihydro-spiro[4H-1-benzopyran-4,4'-imidazolidine]-2',5'-dione] gave an inhibition at 3.3 µM (aldose reductase; Table 1, 3.3 × 10^-6) of 54%, an inhibition at 10 µM (aldose reductase; [9]) of 75% and an inhibition at 1 µM (aldose reductase; Table 1, 10^-6 M) of 31%. For the same molecule, the IC50 (aldose reductase; Table 1) was 2700 nM.
For NC(=O)[C@H]1CC2(NC(=O)NC2=O)c2cc(F)cc([N+](=O)[O-])c2O1 (stereo partly drawn) [J, d-6-Fluoro-2,3-dihydro-8-nitro-2',5'-dioxo-spiro[4H-1-benzopyran-4,4'-imidazolidine]-2-carboxamide], the inhibition at 0.02 µM (aldose reductase; Table 2) was 69%, the inhibition at 0.033 µM (aldose reductase; [6]) was 82% and the inhibition at 0.01 µM (aldose reductase; [8]) was 35%. For the same molecule, the IC50 (aldose reductase; Table 2) was 14 nM.
NC(=O)[C@H]1CC2(NC(=O)NC2=O)c2cc(F)cc(N)c2O1 (stereo partly drawn) [K, d-8-Amino-6-fluoro-2,3-dihydro-2',5'-dioxo-spiro[4H-1-benzopyran-4,4'-imidazolidine]-2-carboxamide] showed an inhibition at 0.033 µM (aldose reductase; [6]) of 60%, an inhibition at 0.1 µM (aldose reductase; [7]) of 70% and an inhibition at 0.01 µM (aldose reductase; [8]) of 27%. The IC50 (aldose reductase; Table 2) was 25 nM.
For CC(=O)Nc1cc(F)cc2c1O[C@@H](C(N)=O)CC21NC(=O)NC1=O (stereo partly drawn) [P, d-8-Acetamido-6-fluoro-2,3-dihydro-2',5'-dioxo-spiro[4H-1-benzopyran-4,4'-imidazolidine]-2-carboxamide], the inhibition at 0.02 µM (aldose reductase; Table 2) was 56%, the inhibition at 0.033 µM (aldose reductase; [6]) was 69% and the inhibition at 0.01 µM (aldose reductase; [8]) was 30%. It also gave an IC50 (aldose reductase; Table 2) of 18 nM.
O=C1NC(=O)C2(CCOc3ccc(F)cc32)N1 (stereo not drawn) [Q, d1-6-Fluoro-2,3-dihydro-spiro[4H-1-benzopyran-4,4'-imidazolidine]-2',5'-dione, reference compound] gave an ED50 [1, 3] of 31.5 mg/kg, an ED50 ([1]; Table 3) of 36.6 mg/kg and an inhibition at 3.3 µM (aldose reductase; Table 1, 3.3 × 10^-6) of 85%. The inhibition at 0.33 µM (aldose reductase; Table 1, 3.3 × 10^-7 M) was 46%, the inhibition at 0.033 µM (aldose reductase; [4]) was 10% and the inhibition at 1 µM (aldose reductase; Table 1, 10^-6 M) was 71%. For the same molecule, the inhibition at 0.1 µM (aldose reductase; [5]) was 17%.
In the case of O=C1NC(=O)C2(CCOc3ccc(F)cc32)N1 (stereo not drawn) [R, d-6-Fluoro-2,3-dihydro-spiro[4H-1-benzopyran-4,4'-imidazolidine]-2',5'-dione, reference compound], the ED50 ([1]; Table 3) is reported as 18.0 mg/kg, the “Inhibition (%)” value (aldose reductase; Table 1, 3.3 × 10^-6) is reported as 88% and the “Inhibition (%)” value (aldose reductase; Table 1, 3.3 × 10^-7 M) is reported as 61%. The “Inhibition (%)” value (aldose reductase; Table 1, 3.3 × 10^-8 M) was 15%, the “Inhibition (%)” value (aldose reductase; Table 1, 10^-6 M) was 80% and the “Inhibition (%)” value (aldose reductase; Table 1, 10^-7 M) was 34%. It also gave an inhibition at 0.33 µM (aldose reductase; Table 2, 3.3 × 10^-7 M) of 59%, an inhibition at 0.033 µM (aldose reductase; [6]) of 24% and an inhibition at 1 µM (aldose reductase; Table 2, 10^-6 M) of 76%. For the same molecule, the inhibition at 0.1 µM (aldose reductase; [7]) was 29%.
Molecule O=C1NC(=O)C2(CCOc3ccc(F)cc32)N1 (stereo not drawn) [S, 1-6-Fluoro-2,3-dihydro-spiro[4H-1-benzopyran-4,4'-imidazolidine]-2',5'-dione, reference compound] has an inhibition at 10 µM (aldose reductase; [9]) of 32%.
